Experimental data as given in PubChem BioAssay AID2060332 (Molecular Pharmacology Branch, DTP, NCI, 2025).
Where “and” joins values, the source holds several entries; their conditions need not be identical. Equal entries are not always repeated.

Test system: LG0567-F671-PDC multi-cell spheroid viability
Test: Anticancer human tumor LG0567-F671-PDC patient-derived lung adenocarcinoma cell line growth inhibition [IpAb]
Settings: for viability, T/C: stronger effect = lower value
How it was run: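 Multi-cell spheroids of 60% tumour cells, 25% HUVEC and 15% MSC in ultra-low-attachment U-bottom wells, treated with agents combined with ipatasertib or abemaciclib. Half-log ranges top out near clinical Cmax, or 10 microM when Cmax is unknown.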

[1] = curve of first compound, second compound 0.01 µM
[2] = curve of first compound, second compound 0.0316 µM
[3] = curve of first compound, second compound 0.1 µM
[4] = curve of first compound, second compound 0.316 µM
[5] = curve of first compound, second compound 1 µM
[6] = second compound 0.01 µM, first compound 0.0316 µM
[7] = second compound 0.01 µM, first compound 0.1 µM
[8] = second compound 0.01 µM, first compound 0.316 µM
[9] = second compound 0.01 µM, first compound 1 µM
[10] = second compound 0.01 µM, first compound 3.16 µM
[11] = second compound 0.01 µM, first compound 10 µM
[12] = second compound 0.0316 µM, first compound 0.0316 µM
[13] = second compound 0.0316 µM, first compound 0.1 µM
[14] = second compound 0.0316 µM, first compound 0.316 µM
[15] = second compound 0.0316 µM, first compound 1 µM
[16] = second compound 0.0316 µM, first compound 3.16 µM
[17] = second compound 0.0316 µM, first compound 10 µM
[18] = second compound 0.1 µM, first compound 0.0316 µM
[19] = second compound 0.1 µM, first compound 0.1 µM
[20] = second compound 0.1 µM, first compound 0.316 µM
[21] = second compound 0.1 µM, first compound 1 µM
[22] = second compound 0.1 µM, first compound 3.16 µM
[23] = second compound 0.1 µM, first compound 10 µM
[24] = second compound 0.316 µM, first compound 0.0316 µM
[25] = second compound 0.316 µM, first compound 0.1 µM
[26] = second compound 0.316 µM, first compound 0.316 µM
[27] = second compound 0.316 µM, first compound 1 µM
[28] = second compound 0.316 µM, first compound 3.16 µM
[29] = second compound 0.316 µM, first compound 10 µM
[30] = second compound 1 µM, first compound 0.0316 µM
[31] = second compound 1 µM, first compound 0.1 µM
[32] = second compound 1 µM, first compound 0.316 µM
[33] = second compound 1 µM, first compound 1 µM
[34] = second compound 1 µM, first compound 3.16 µM
[35] = second compound 1 µM, first compound 10 µM
[36] = curve of first compound, second compound 3.16 µM
[37] = curve of first compound, second compound 10 µM
[38] = second compound 3.16 µM, first compound 0.0316 µM
[39] = second compound 3.16 µM, first compound 0.1 µM
[40] = second compound 3.16 µM, first compound 0.316 µM
[41] = second compound 3.16 µM, first compound 1 µM
[42] = second compound 3.16 µM, first compound 3.16 µM
[43] = second compound 3.16 µM, first compound 10 µM
[44] = second compound 10 µM, first compound 0.0316 µM
[45] = second compound 10 µM, first compound 0.1 µM
[46] = second compound 10 µM, first compound 0.316 µM
[47] = second compound 10 µM, first compound 1 µM
[48] = second compound 10 µM, first compound 3.16 µM
[49] = second compound 10 µM, first compound 10 µM
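Note: viability read after 7 days of drug exposure.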
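Throughout, for viability, T/C: 100% = DMSO vehicle control luminescence.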

Row | Compound | IC50 [3] | IC50 [4] | IC50 [5] | viability, T/C [18] | viability, T/C [19] | viability, T/C [20] | viability, T/C [21] | viability, T/C [22] | viability, T/C [23] | viability, T/C [24] | viability, T/C [25] | viability, T/C [26] | viability, T/C [27] | viability, T/C [28] | viability, T/C [29] | viability, T/C [30] | viability, T/C [31] | viability, T/C [32] | viability, T/C [33] | viability, T/C [34] | other results
1 | Cn1ncc(Cl)c1-c1cc(C(=O)NC(CN)Cc2cccc(F)c2)sc1Cl (configuration not stated) + CCN1CCN(Cc2ccc(Nc3ncc(F)c(-c4cc(F)c5nc(C)n(C(C)C)c5c4)n3)nc2)CC1 | 470 nM | < 31.6 nM | 226 nM | 74.8% | 51.4% | 52.7% | 45.8% | 27.6% | 0.13% | 42.4% | 51.4% | 57.9% | 33% | 30.9% | 0.14% | 59% | 51.8% | 47.2% | 37.4% | 30% | IC50 [1]: 1850 nM; IC50 [2]: 1190 nM; viability, T/C [6]: 88.8%; viability, T/C [7]: 68%; viability, T/C [8]: 50.2%; viability, T/C [9]: 61.4%; viability, T/C [10]: 49.9%; viability, T/C [11]: 0.15%; viability, T/C [12]: 57.7%; viability, T/C [13]: 53.9%; viability, T/C [14]: 49.9%; viability, T/C [15]: 54.2%; viability, T/C [16]: 28.6%; viability, T/C [17]: 0.13%; viability, T/C [35]: 0.19%
2 | CC(C)n1nc(-c2ccc3oc(N)nc3c2)c2c(N)ncnc21 | – | – | – | – | – | – | – | – | – | – | – | – | – | – | – | – | – | – | – | – | viability, T/C (compound 0.000316 µM): 108% and 95.6%; viability, T/C (compound 0.001 µM): 79.7% and 87.8%; viability, T/C (compound 0.00316 µM): 90.1% and 102%; viability, T/C (compound 0.01 µM): 64% and 55.8%; viability, T/C (compound 0.0316 µM): 78.1% and 50%; viability, T/C (compound 0.1 µM): 66.9% and 56.8%; IC50 (curve of compound): > 100 nM
3 | CC1(C)CCC(CN2CCN(c3ccc(C(=O)NS(=O)(=O)c4ccc(NCC5CCOCC5)c([N+](=O)[O-])c4)c(Oc4cnc5[nH]ccc5c4)c3)CC2)=C(c2ccc(Cl)cc2)C1 + CC(C)NCC(C(=O)N1CCN(c2ncnc3c2C(C)CC3O)CC1)c1ccc(Cl)cc1 | 6900 nM | 5510 nM | 5380 nM | 78.6% | 86.3% | 93.8% | 88.6% | 93.9% | 31.9% | 50% | 91.5% | 81.6% | 55.8% | 83.8% | 25.9% | 63.5% | 82.9% | 88.4% | 76.2% | 70.4% | IC50 [36]: 5360 nM; IC50 [37]: 4760 nM; viability, T/C [35]: 26.1%; viability, T/C [38]: 71.5%; viability, T/C [39]: 80.1%; viability, T/C [40]: 79.9%; viability, T/C [41]: 62.2%; viability, T/C [42]: 72.7%; viability, T/C [43]: 23.6%; viability, T/C [44]: 77.3%; viability, T/C [45]: 79.5%; viability, T/C [46]: 76.2%; viability, T/C [47]: 79.9%; viability, T/C [48]: 72.8%; viability, T/C [49]: 8.73%
4 | CC(C)NCC(C(=O)N1CCN(c2ncnc3c2C(C)CC3O)CC1)c1ccc(Cl)cc1 (configuration not stated) | – | – | – | – | – | – | – | – | – | – | – | – | – | – | – | – | – | – | – | – | viability, T/C (compound 0.316 µM): 71.7% [middle of 13 runs]; viability, T/C (compound 10 µM): 71.6% [middle of 13 runs]; IC50 (compound alone, run of 06/01/2021): > 10000 nM
5 | Cn1nccc1Nc1nccc(-c2ccn(C(CO)c3ccc(Cl)c(F)c3)c(=O)c2)n1 (configuration not stated) + CCN1CCN(Cc2ccc(Nc3ncc(F)c(-c4cc(F)c5nc(C)n(C(C)C)c5c4)n3)nc2)CC1 | 87.3 nM | < 31.6 nM | < 31.6 nM | 57.1% | 48.3% | 40.5% | 28.1% | 31.2% | 24.9% | 49.7% | 46.4% | 37.1% | 34% | 24.6% | 28.5% | 42.8% | 50% | 40.3% | 29.3% | 25.5% | IC50 [1]: 121 nM; IC50 [2]: 131 nM; viability, T/C [6]: 77.9%; viability, T/C [7]: 47.2%; viability, T/C [8]: 46.7%; viability, T/C [9]: 31.2%; viability, T/C [10]: 26.9%; viability, T/C [11]: 29.6%; viability, T/C [12]: 60.9%; viability, T/C [13]: 48.9%; viability, T/C [14]: 45.9%; viability, T/C [15]: 28%; viability, T/C [16]: 26.2%; viability, T/C [17]: 24.9%; viability, T/C [35]: 23.1%
6 | CC(C)(C)c1cnc(CSc2cnc(NC(=O)C3CCNCC3)s2)o1 | – | – | – | – | – | – | – | – | – | – | – | – | – | – | – | – | – | – | – | – | viability, T/C (compound 0.00949 µM): 110% and 111%; viability, T/C (compound 0.03 µM): 113% and 95.4%; viability, T/C (compound 0.0949 µM): 97.6% and 73.8%; viability, T/C (compound 0.3 µM): 6.76% and 3.49%; viability, T/C (compound 0.949 µM): 2.03% and 1.44%; viability, T/C (compound 3 µM): 0.9% and 0.89%; IC50 (curve of compound): 173 nM and 140 nM
7 | C=CCn1c(=O)c2cnc(Nc3ccc(N4CCN(C)CC4)cc3)nc2n1-c1cccc(C(C)(C)O)n1 + CC(C)NCC(C(=O)N1CCN(c2ncnc3c2C(C)CC3O)CC1)c1ccc(Cl)cc1 | 479 nM | 803 nM | 626 nM | 80.7% | 78.5% | 52.1% | 44.6% | 34.6% | 33.4% | 75% | 73.1% | 53.3% | 50.5% | 36.2% | 23.6% | 69.6% | 84.6% | 65.2% | 37.8% | 37.6% | IC50 [36]: 1050 nM; IC50 [37]: 646 nM; viability, T/C [35]: 20.2%; viability, T/C [38]: 79.1%; viability, T/C [39]: 83%; viability, T/C [40]: 59.1%; viability, T/C [41]: 50.8%; viability, T/C [42]: 36.9%; viability, T/C [43]: 19.5%; viability, T/C [44]: 72.8%; viability, T/C [45]: 76%; viability, T/C [46]: 51.7%; viability, T/C [47]: 49.1%; viability, T/C [48]: 31.9%; viability, T/C [49]: 26.8%
8 | Cn1nccc1Nc1nccc(-c2ccn(C(CO)c3ccc(Cl)c(F)c3)c(=O)c2)n1 (configuration not stated) + CC(C)NCC(C(=O)N1CCN(c2ncnc3c2C(C)CC3O)CC1)c1ccc(Cl)cc1 | 128 nM | 79.9 nM | 152 nM | 60.9% | 51.7% | 44.4% | 34.2% | 29.1% | 23.9% | 62.1% | 45.6% | 36.7% | 32.7% | 26% | 21.3% | 62.4% | 52.9% | 43.8% | 25.9% | 20.2% | IC50 [36]: 160 nM; IC50 [37]: 192 nM; viability, T/C [35]: 15.9%; viability, T/C [38]: 67.2%; viability, T/C [39]: 58%; viability, T/C [40]: 38.6%; viability, T/C [41]: 31.7%; viability, T/C [42]: 19.3%; viability, T/C [43]: 9.79%; viability, T/C [44]: 60.1%; viability, T/C [45]: 57.4%; viability, T/C [46]: 44.8%; viability, T/C [47]: 27.2%; viability, T/C [48]: 16.7%; viability, T/C [49]: 9.92%
